Experimental data: patent US8592421B2, “Cyclic bioisosters of purine system derivatives and a pharmaceutical composition based thereon” (priority 2003, dated 2013)

Tests used:
thrombocytes [1] = assay: ADP-induced aggregation of thrombocytes in vitro (Born method, plasma enriched with thrombocytes); assay type: cell-based, rabbit; conditions: 3-minute incubation, ADP 10^−5 M
thrombocytes [2] = assay: ADP-induced aggregation of thrombocytes after intravenous administration (in vivo); set-up: species or system rabbit
Method: The experiments were carried out on male rabbits of the “Chinchilla” breed having a mass of 2.7±0.3 kg. 18-24 hours prior to the experiment they were deprived of feed while preserving free access to water.
To obtain plasma enriched with thrombocytes, blood was taken from a cut of a marginal vein of the rabbit ear, the sample was stabilized with 3.8% of sodium citrate solution in a ratio of 9:1 and centrifuged at 200 g (1000 rev/min) for 10 minutes. The top supernatant layer enriched with thrombocytes was transferred by an automatic dropper into a silicone test tube and kept at 37° C. The plasma enriched with thrombocytes contained, on the average, […]. If this content exceeded the specified 3×10^8 blood platelets in 1 liter, this sample was diluted to the necessary concentration with plasma deprived of thrombocytes, which was obtained by centrifuging blood at 650 g during 10 minutes.
The measurements of the optical density of the samples were made on two-channel aggregometer of the “Chronolog” Company (USA). A flask containing 490 mkl of plasma rich with thrombocytes was placed in a device, into which a magnetic agitator covered with Teflon was lowered. The index of maximum amplitude of aggregation (MA) in percent of a fall of the plasma optical density under effect of the aggregation inductor was recorded. The control index MA of plasma was compared with the MA of plasma incubated for 3 minutes with different concentrations of the compounds: from 10^−3 to 10^−7 in vitro experiments or with plasma obtained 15, 30, 60 and 120 minutes after intravenous administration of different doses of the compounds in vivo experiments.
The process of aggregation of thrombocytes was recorded with the help of a computer; on the monitor screen the there were depicted curves reflecting changes of the optical density of the plasma enriched which was taken as a standard 100% compared to the optical density of the non-thrombocyte plasma taken for 0% content of thrombocytes.
The antiaggregative capability of compounds 2, 15, 21, 37, according to the invention was tested in experiments in vivo. Introduced to the test animals intravenously were an aggregation inductor ADP at a concentration of 10^−5 M was and then the compounds according to the invention. The doses of the compounds were in a range from 15 to 60 mg/kg.
For leveling the different effects of the compounds in different days due the ambient temperature, humidity and other parameters, 2 animals of each series were taken for experiments every day. Under “series” there is understood a group of 6 animals used for studying one of the doses of the compounds.
The blood for obtaining plasma enriched with thrombocytes was taken from marginal vein of the rabbit ear: in the control group—directly before introducing the tested compounds; in investigated groups—15 minutes after introducing these compounds and then after 30, 60, 120 minutes and so on up to the moment when the effect of suppression of aggregation disappeared.
The quantity of thrombocytes was counted before the experiment and at the end thereof in each plasma sample.

[3] = Chronic toxicity of suppositories: indexes of peripheral blood; assay type: in vivo, rats; conditions: male rats, suppositories rectally; for Basophiles / Juveniles: 1 month/2 months (one value given), control 0
Method: The experiments were conducted on inbred rats.
Two doses of preparations used in the experiments: 50 mg/kg and 500 mg/kg. Before the administration, the suppositories were softened by heating in a glass water bath at a temperature of 38-39° C., the soft mass was collected in tuberculin syringe in a volume of 1 ml, a needle with oliva was attached to the syringe, and the preparatory mass was introduced into the rectum of the animal for a depth of 1.5-2.0 cm. The animals of the control group were administered with sterile medical liquid paraffin in a volume corresponding to the volume of the investigated suppository. A complete course of administration of drugs to the animals was two months. A complex of laboratory diagnostic investigations was carried out one month after the beginning of the administration of the preparation to the animal—in a middle of the course (8 animals), two months after ending the course (8 animals) and three months after ending the recovery period of one month (8 animals). The mass of the body of the rats in the first month of administration of the preparation was determined weekly, and then once in two weeks. On the basis of the dynamics of an index of the mass of the animal body, the volume of preparation being administered was corrected taking into account the test dose.

Structure (SMILES): Nc1cccc2c(=O)[nH][nH]c(=O)c12.[Na] [Compound 15, sodium salt of 5-amino-benzo[d]-3H-pyridazine-1,4-dione]
- MA - fall of optical density of plasma, % to the standard (thrombocytes [1]; 10^−3 M, control 60.8 ± 3.4): 44.8 ± 2.8 %
- MA - fall of optical density of plasma, % to the standard (thrombocytes [1]; 10^−4 M, control 60.0 ± 2.1): 46.3 ± 1.7 %
- MA - fall of optical density of plasma, % to the standard (thrombocytes [1]; 10^−5 M, control 52.5 ± 2.1): 39.8 ± 3.1 %
- MA - drop of optical density, % (thrombocytes [1]; 10^−6 M, control 52.8 ± 1.8): 47.3 ± 1.8 %
- MA - drop of optical density, % (thrombocytes [1]; 10^−7 M, control 51.5 ± 2.1): 49.3 ± 1.4%
- MA - drop of optical density (thrombocytes [2]; 15.0 mg/kg intravenously, after 15 minutes, control 50.1 ± 1.7): 42.8 ± 1.8 %
- MA - drop of optical density (thrombocytes [2]; 15.0 mg/kg intravenously, after 30 minutes, control 50.1 ± 1.7): 41.8 ± 1.5 %
- MA - drop of optical density (thrombocytes [2]; 15.0 mg/kg intravenously, after 60 minutes, control 50.1 ± 1.7): 45.6 ± 1.5 %
- MA - drop of optical density (thrombocytes [2]; 15.0 mg/kg intravenously, after 120 minutes, control 50.1 ± 1.7): 48.3 ± 2.3 %
- MA - drop of optical density (thrombocytes [2]; 30.0 mg/kg intravenously, after 15 minutes, control 61.0 ± 1.3): 43.2 ± 2.2 %
- MA - drop of optical density (thrombocytes [2]; 30.0 mg/kg intravenously, after 30 minutes, control 61.0 ± 1.3): 41.8 ± 1.9 %
- MA - drop of optical density (thrombocytes [2]; 30.0 mg/kg intravenously, after 60 minutes, control 61.0 ± 1.3): 37.8 ± 1.8 %
- MA - drop of optical density (thrombocytes [2]; 30.0 mg/kg intravenously, after 120 minutes, control 61.0 ± 1.3): 58.1 ± 1.7%
- MA - drop of optical density (thrombocytes [2]; 60.0 mg/kg intravenously, after 15 minutes, control 48.6 ± 1.3): 43.1 ± 1.5 %
- MA - drop of optical density (thrombocytes [2]; 60.0 mg/kg intravenously, after 30 minutes, control 48.6 ± 1.3): 41.3 ± 1.5 %
- MA - drop of optical density (thrombocytes [2]; 60.0 mg/kg intravenously, after 60 minutes, control 48.6 ± 1.3): 44.7 ± 0.8%
- MA - drop of optical density (thrombocytes [2]; 60.0 mg/kg intravenously, after 120 minutes, control 48.6 ± 1.3): 47.2 ± 1.6%
- Basophiles ([3]; 50 mg/kg): 0%
- Juveniles ([3]; 50 mg/kg): 0%
- Stab neutrophil ([3]; 50 mg/kg, 1 month, control 0.8 ± 0.4): 1.2 ± 0.5%
- REE ([3]; 50 mg/kg, 1 month, control 2.2 ± 0.4): 1.8 ± 0.4 mm/h
- Reticulocytes ([3]; 50 mg/kg, 1 month, control 2.8%0.3): 2.6 ± 0.2%
- Eosinophiles ([3]; 50 mg/kg, 1 month, control 4.0 + 0.3): 3.2 ± 1.0%
- Erythrocytes ([3]; 50 mg/kg, 1 month, control 5.6 ± 0.1): 5.7 ± 0.2 mln/mm^3
- Hemoglobin ([3]; 50 mg/kg, 1 month, control 10.5 ± 0.2): 10.6 ± 0.2 mmol/L
- Leukocyte ([3]; 50 mg/kg, 1 month, control 17.4 ± 1.3): 14.8 ± 2.0 thousand/mm^3
- Haematocrite ([3]; 50 mg/kg, 1 month, control 45.9 ± 1.7): 47.9 ± 1.4%
- Average volume of erythrocytes ([3]; 50 mg/kg, 1 month, control 81.4 ± 1.7): 84.4 ± 1.5 Mkm^3
- Coagulation, time ([3]; 50 mg/kg, 1 month, control 152 ± 10.2): 140 ± 12.2 s
- REE ([3]; 50 mg/kg, 2 months, control 1.4 ± 0.2): 1.6 ± 0.2 mm/h
- Stab neutrophil ([3]; 50 mg/kg, 2 months, control 2.4 ± 0.4): 0.8 ± 0.5%
- Reticulocytes ([3]; 50 mg/kg, 2 months, control 2.9 ± 0.2): 3.0 ± 0.1%
- Eosinophiles ([3]; 50 mg/kg, 2 months, control 4.4 + 1.2): 3.6 ± 1.2%
- Erythrocytes ([3]; 50 mg/kg, 2 months, control 6.1 ± 0.1): 6.0 ± 0.1 mln/mm^3
- Hemoglobin ([3]; 50 mg/kg, 2 months, control 11.4 ± 0.2): 11.2 ± 0.1 mmol/L
- Leukocyte ([3]; 50 mg/kg, 2 months, control 19.1 ± 1.9): 16.3 ± 1.0 thousand/mm^3
- Haematocrite ([3]; 50 mg/kg, 2 months, control 45.9 ± 1.8): 47.5 ± 1.2%
- Average volume of erythrocytes ([3]; 50 mg/kg, 2 months, control 74.6 + 1.9): 78.6 ± 1.5 Mkm^3
- Coagulation, time ([3]; 50 mg/kg, 2 months, control 316 ± 8): 321 ± 12 s
- Basophiles ([3]; 500 mg/kg): 0%
- Juveniles ([3]; 500 mg/kg): 0%
- Stab neutrophil ([3]; 500 mg/kg, 1 month, control 0.8 ± 0.4): 0.8 ± 0.5/0.8 ± 0.5%
- REE ([3]; 500 mg/kg, 1 month, control 2.2 ± 0.4): 2.2 ± 0.4 mm/h
- Reticulocytes ([3]; 500 mg/kg, 1 month, control 2.8%0.3): 3.1 ± 0.2%
- Eosinophiles ([3]; 500 mg/kg, 1 month, control 4.0 + 0.3): 3.0 ± 1.0%
- Erythrocytes ([3]; 500 mg/kg, 1 month, control 5.6 ± 0.1): 5.7 ± 0.1 mln/mm^3
- Hemoglobin ([3]; 500 mg/kg, 1 month, control 10.5 ± 0.2): 10.6 ± 0.2 mmol/L
- Leukocyte ([3]; 500 mg/kg, 1 month, control 17.4 ± 1.3): 17.0 ± 1.4 thousand/mm^3
- Haematocrite ([3]; 500 mg/kg, 1 month, control 45.9 ± 1.7): 47.6 ± 1.3%
- Average volume of erythrocytes ([3]; 500 mg/kg, 1 month, control 81.4 ± 1.7): 82.6 ± 1.1 Mkm^3
- Coagulation, time ([3]; 500 mg/kg, 1 month, control 152 ± 10.2): 151 ± 6.4 s
- REE ([3]; 500 mg/kg, 2 months, control 1.4 ± 0.2): 1.8 ± 0.4 mm/h
- Stab neutrophil ([3]; 500 mg/kg, 2 months, control 2.4 ± 0.4): 0.8 ± 0.5/0.8 ± 0.5%
- Reticulocytes ([3]; 500 mg/kg, 2 months, control 2.9 ± 0.2): 3.3 ± 0.3%
- Eosinophiles ([3]; 500 mg/kg, 2 months, control 4.4 + 1.2): 3.2 ± 1.4%
- Erythrocytes ([3]; 500 mg/kg, 2 months, control 6.1 ± 0.1): 6.7 ± 0.2 mln/mm^3
- Hemoglobin ([3]; 500 mg/kg, 2 months, control 11.4 ± 0.2): 12.5 ± 0.4 mmol/L
- Leukocyte ([3]; 500 mg/kg, 2 months, control 19.1 ± 1.9): 21.1 ± 2.4 thousand/mm^3
- Haematocrite ([3]; 500 mg/kg, 2 months, control 45.9 ± 1.8): 53.9 ± 2.1%
- Average volume of erythrocytes ([3]; 500 mg/kg, 2 months, control 74.6 + 1.9): 80.21 ± 1.2 Mkm^3
- Coagulation, time ([3]; 500 mg/kg, 2 months, control 316 ± 8): 308 ± 16 s
